Laboratory results: US9066990B2, “Preparation for restenosis prevention” (priority 2001, dated 2015)

Assay: Solubility in the contrast agent or physiological NaCl solution

CC(=O)O[C@H]1C(=O)[C@@]2(C)[C@H]([C@H](OC(=O)c3ccccc3)[C@]3(O)C[C@H](OC(=O)[C@H](O)[C@@H](NC(=O)c4ccccc4)c4ccccc4)C(C)=C1C3(C)C)[C@]1(OC(C)=O)CO[C@@H]1C[C@@H]2O [paclitaxel, 4,10-β-diacetoxy-13-α-((2R,3S)-3-ben-zamido-2-hydroxy-3-phenylpropionyloxy)-2α-benzoyloxy-5-β, 20-epoxy-1,7-β-dihydroxy-11-taxene-9-one]
appearance of preparation after mixing (4.2 mg paclitaxel in 0.5 ml of ethanol added at room temperature to 50 ml of 0.9% NaCl solution): becomes turbid immediately after mixing
particles under a microscope (4.2 mg paclitaxel in 50 ml of 0.9% NaCl solution): Large aggregations of fine particles
appearance of solution after mixing (7.6 mg paclitaxel in 0.5 mg of ethanol added at room temperature to 50 ml Ultravist-370): clear solution without any turbidity
particles under a microscope (7.6 mg paclitaxel in 50 ml Ultravist-370): No particles can be identified
stability of the solution (7.6 mg paclitaxel in 50 ml Ultravist-370, room temperature): remains stable for several days
